Laboratory results taken from publication PMC10251479, “PROTAC-Induced Glycogen Synthase Kinase 3β Degradation as a Potential Therapeutic Strategy for Alzheimer’s Disease” (ACS Chemical Neuroscience, 2023).

Tests used:
[1] = biological target: GSK-3β protein (Homo sapiens, UniProt P49841); test: GSK-3β degradation by Western blotting in SH-SY5Y cells; type: cell-based; design: endogenous in cells; host or cells: SH-SY5Y
Method: Determination of GSK-3β degradation by Western Blotting
At the end of incubation, cells were trypsinized and the cellular pellet was resuspended in complete lysis buffer containing leupeptin (2 µg/mL, Sigma-Aldrich), phenylmethylsulfonyl fluoride (PMSF, 100 µg/mL, Sigma-Aldrich) and a cocktail of protease/phosphatase inhibitors (100×). The protein concentration was determined using the Bradford method (Bio-Rad Laboratories Srl, Hercules, CA, USA). The protein lysates (50 µg per […]
polyacrylamide gels, Bio-Rad Laboratories SrL) and electroblotted onto 0.45 µm nitrocellulose membranes. Membranes were incubated overnight at 4 °C with primary antibody recognizing GSK-3β (1:1000, Cell Signaling Technologies Inc, Danvers, MA, USA). Membranes were then washed with TRIS-buffered saline-T (TBS + 0.05% Tween20), and then incubated with horseradish peroxidase (POD) linked anti-rabbit secondary antibody (1:2000, GE Healthcare, Chicago, IL, USA).
Immunoreactive bands were visualized by enhanced chemiluminescence (ECL, Bio-Rad Laboratories Srl). The same membranes were stripped and reprobed with anti β-actin (1:1000, Sigma-Aldrich). Data were normalized on the β-actin bands and analyzed by densitometry, using the Quantity One software (Bio-Rad Laboratories Srl).[9] […]

[2] = test system: SH-SY5Y cells; test: Cytotoxicity in SH-SY5Y cells (MTT); type: cell-based, human
Method: Human neuronal SH-SY5Y cells (Sigma-Aldrich, St. Louis, MO, USA) were routinely grown in Dulbecco’s modified Eagle’s Medium supplemented with 10% fetal bovine serum, 2 mM l-glutamine, 50 U/mL penicillin, and 50 μg/mL streptomycin at 37 °C in a humidified incubator with […]
Determination of cytotoxicity
SH-SY5Y cells were seeded in a 96-well plate at 2 × 10^4 cells/well, incubated for 24 h and then […]
for 24 h at 37°C in 5% CO2. The cell viability, in terms of mitochondrial metabolic function, was evaluated by the reduction of 3-(4,5-dimethyl-2-thiazolyl)-2,5-diphenyl-2H-tetrazolium bromide […]
(MTT) to its insoluble formazan. Briefly, the treatment was replaced with MTT in HBSS [0.5 mg/mL] for 2 h at 37°C in 5% CO2. After washing with HBSS, formazan crystals were dissolved in isopropanol. The amount of formazan was measured (570 nm, reference filter 690 nm) using a multilabel plate reader (VICTOR™ X3, PerkinElmer, Waltham, MA, USA). Data are expressed as mean of three independent experiments. […]

GSK-3β protein, sequence (P49841 whole entry): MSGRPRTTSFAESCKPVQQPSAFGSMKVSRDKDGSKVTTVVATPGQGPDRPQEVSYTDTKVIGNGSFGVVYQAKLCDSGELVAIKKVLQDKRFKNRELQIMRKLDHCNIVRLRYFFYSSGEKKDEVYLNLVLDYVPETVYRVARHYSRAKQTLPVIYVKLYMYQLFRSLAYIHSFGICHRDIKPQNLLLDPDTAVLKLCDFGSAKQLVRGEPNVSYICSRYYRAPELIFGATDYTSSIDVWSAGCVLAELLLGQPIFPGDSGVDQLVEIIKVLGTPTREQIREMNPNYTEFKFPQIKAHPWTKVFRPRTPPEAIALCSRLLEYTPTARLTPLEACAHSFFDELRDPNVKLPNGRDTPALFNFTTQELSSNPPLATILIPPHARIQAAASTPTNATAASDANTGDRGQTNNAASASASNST

DC50 ([1]; 48 h, 0.5, 1, 5 and 10 μM, read-out: half-maximal degradation (DC50)): 6.22 µM | concentration from which GSK-3β is degraded ([1]; dose-dependent): ≥ 0.5 µM
Structure (SMILES): O=C(Cn1cc(C2=C(c3ccc(Cl)cc3Cl)C(=O)NC2=O)c2ccccc21)NCCCOCCCCOCCCNc1cccc2c1C(=O)N(C1CCC(=O)NC1=O)C2=O (stereo not shown) [Compound 1]
total GSK-3β protein level ([1]; 10 μM, 48 h, Western blotting): significantly decreased the total level of GSK-3β protein | GSK-3β protein level, dose dependence ([1]; 48 h at 0.5, 1, 5 and 10 μM): significantly decreased GSK-3β protein level at all tested concentrations in a dose-dependent manner | total GSK-3β protein level in the presence of lactacystin ([1]; compound 10 μM, 24 h, lactacystin 5 μM): had no effect on the total GSK-3β protein level | concentration at which cytotoxicity was shown ([2]; MTT, 24 h treatment, 1.25–40 μM): higher than 20 μM | nontoxic up to (neuronal cells) ([2]; neuronal cells): up to 20 μM
